From paper PMC9284540 (Journal of Molecular Biology, 2022)
“And” between values parts separate entries of the source, which are not always exact repeats. Identical values can stand only once.

Columns and labels:
SARS-CoV-2 MD [1] = target: T1, SARS-CoV-2 MD (Severe acute respiratory syndrome coronavirus 2, UniProt P0DTD1); format: biochemical
MAYV MD [2] = target: T2, MAYV MD (Mayaro virus, UniProt Q8QZ73); format: binding
CHIKV MD [3] = target: T3, CHIKV MD (Chikungunya virus, UniProt Q8JUX6); format: biochemical
T3 sequence (Q8JUX6 1334-1493 limits assumed): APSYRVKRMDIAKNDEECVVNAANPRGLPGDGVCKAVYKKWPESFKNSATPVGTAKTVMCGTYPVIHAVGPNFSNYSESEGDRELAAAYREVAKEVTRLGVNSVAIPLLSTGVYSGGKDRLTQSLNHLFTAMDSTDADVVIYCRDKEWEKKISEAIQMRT

SARS-CoV-2 MD [4] = target: T1, SARS-CoV-2 MD; format: binding
SARS-CoV-2 MD [5] = target: T1, SARS-CoV-2 MD; format: binding; remark: listed apart in the source
CHIKV MD [6] = target: T3, CHIKV MD; format: binding
viral MDs = format: biochemical
MAYV MD [7] = target: T2, MAYV MD; format: biochemical
hPARP14 MD2 = hPARP14 MD2 (Homo sapiens, UniProt Q460N5); test: biochemical; format: binding
Chain of hPARP14 MD2 (Q460N5 999-1191): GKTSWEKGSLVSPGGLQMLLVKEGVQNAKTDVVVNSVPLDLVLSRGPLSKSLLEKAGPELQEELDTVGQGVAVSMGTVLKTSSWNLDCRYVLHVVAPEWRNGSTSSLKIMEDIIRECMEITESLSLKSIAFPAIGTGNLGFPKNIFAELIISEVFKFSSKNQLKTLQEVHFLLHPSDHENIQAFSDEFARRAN

CHIKV MD [8] = target: T3, CHIKV MD; test: biochemical; format: binding

T2 sequence (Q8QZ73 1335-1493 limits assumed): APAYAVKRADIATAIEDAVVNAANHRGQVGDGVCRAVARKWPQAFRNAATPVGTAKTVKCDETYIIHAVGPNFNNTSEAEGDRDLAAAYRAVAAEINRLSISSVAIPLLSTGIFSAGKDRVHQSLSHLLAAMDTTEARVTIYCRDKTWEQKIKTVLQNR

SMILES | Initial substrate decay rate k (SARS-CoV-2 MD [1]) | exchange regime on NMR time scale (MAYV MD [2]) | Initial substrate decay rate k (CHIKV MD [3]) [µM/min] | exchange regime on NMR time scale between free and bound form (SARS-CoV-2 MD [4]) | -T*ΔS (SARS-CoV-2 MD [5]) [kcal/mol] | ΔH (SARS-CoV-2 MD [5]) [kcal/mol] | ΔS (SARS-CoV-2 MD [5]) | reduction of the k value (SARS-CoV-2 MD [1]) [%] | exchange regime on NMR time scale (CHIKV MD [6]) | reduction of the k value (viral MDs) | Initial substrate decay rate k (MAYV MD [7]) | Kd (hPARP14 MD2) [µM] | Kd (CHIKV MD [8]) [µM]
CCC(CC)COC(=O)[C@H](C)N[P@](=O)(OC[C@H]1O[C@@](C#N)(c2ccc3c(N)ncnn23)[C@H](O)[C@@H]1O)Oc1ccccc1 [Remdesivir] | 0.157 ± 0.012 µM/min and 0.169 ± 0.002 µM/min | – | – | – | – | – | – | – | – | – | – | – | –
N#C[C@@]1(c2ccc3c(N)ncnn23)O[C@H](CO)[C@@H](O)[C@H]1O [GS-441524] | 0.121 ± 0.002 µM/min and 0.075 ± 0.003 µM/min | fast and intermediate exchange regime | 0.179 ± 0.003 | slow exchange regime | -1.55 | -5.25 ± 0.13 | +5.2 cal/mol K-1 | 60 | fast and intermediate exchange regime | 15–32% | 0.190 ± 0.002 µM/min and 0.153 ± 0.003 µM/min | ~250 | ~100
Nc1ncnc2c1ncn2[C@@H]1O[C@H](CO)[C@@H](O)[C@H]1O [Adenosine] | – | – | – | fast exchange regime | – | – | – | – | – | – | – | – | –
